PubChem BioAssay AID1996
≈ marks a conversion by molar mass, not a printed value.

Details: buffer; pH 7.4; 200.0 µM

Compound	solubility kinetic
Cc1cccc(CN2CCN(C(=S)Nc3ccccc3)CC2)c1	> 48.8 µg/mL
O=C(NCC1CCCO1)c1cccc(NC(=O)c2cccs2)c1 (stereo not drawn)	> 49.6 µg/mL
OCCN1CCN(CC#CCC(c2ccccc2)c2ccccc2)CC1	> 52.3 µg/mL
CCOC(=O)C(=O)Nc1ccccc1C(=O)OC	> 37.7 µg/mL
CC(C(=O)Nc1ccccc1)N1CCN(C(=O)c2ccco2)CC1 (stereo not drawn)	> 49.1 µg/mL
O=C(NCc1cccnc1)NC1CC(=O)N(c2ccc3c(c2)OCCO3)C1 (stereo not drawn)	> 55.3 µg/mL
O=C(O)c1cccc(Nc2c([N+](=O)[O-])c(=O)oc3ccccc23)c1	> 48.9 µg/mL
CCN(CC)C(=O)c1cccc(NC(=O)C2CCN(C(=O)c3cccs3)CC2)c1	> 62 µg/mL
CN(CC(=O)Nc1cccc(F)c1)CC(=O)Nc1ccccc1[N+](=O)[O-]	49.7 µg/mL (≈ 138 µM)
Cc1cscc1NC(=O)/C=C/C(=O)O	31.5 µg/mL (≈ 149 µM)
O=C(NCc1cccnc1)/C(=C/c1ccc([N+](=O)[O-])cc1)NC(=O)c1ccccc1	10.2 µg/mL (≈ 25.3 µM)
COc1ccc(CCC(=O)Nc2ccc(C(=O)c3ccncc3)cc2)cc1	3.8 µg/mL (≈ 10.5 µM)
O=c1c2ccccc2[nH]c(=S)n1Cc1ccc2c(c1)OCO2	< 0.3 µg/mL
Cc1c(NC(=O)[C@@H](NC(=O)c2ccc(Cl)c([N+](=O)[O-])c2)C(C)C)c(=O)n(-c2ccccc2)n1C	> 72.9 µg/mL
CC(OC(=O)CNC(=O)C1CCCCC1)C(=O)NCc1ccccc1 (stereo not drawn)	> 52 µg/mL
C[C@@H]1CN(Cc2nc(-c3cccs3)no2)C[C@H](C)O1	38 µg/mL (≈ 136 µM)
CC1=C(C)C(C)=C(C#N)C(=C(C#N)C#N)N1	> 31.5 µg/mL
CC(=O)N1CCN(C(=S)NC(=O)c2ccc(F)cc2)CC1	> 46.4 µg/mL
CCOC(=O)c1c(NC(=O)CN2CCCCC2)sc(C)c1C	< 0.3 µg/mL
COc1ccc(NC(=O)CSc2nc3c(c(-c4cccs4)c2C#N)CN(C)CC3)cc1OC	19.9 µg/mL (≈ 41.4 µM)
CCN(CC)CCN(C(=O)c1cc2ccccc2cc1OC)c1nc2ccc(OC)cc2s1.Cl	3.7 µg/mL
Cc1cccc(NC(=O)CN(C)C(=O)c2ccc(N3CCCCCC3)c([N+](=O)[O-])c2)c1C	11.4 µg/mL (≈ 26 µM)
CCOc1cccc(CNCc2ccncc2)c1	27.4 µg/mL (≈ 113 µM)
O=c1c2ccccc2ncn1CCOCCOc1ccc([N+](=O)[O-])cc1	17.1 µg/mL (≈ 48.1 µM)

Compound	solubility kinetic
O=C(NCCc1ccccc1)c1cc([N+](=O)[O-])ccc1N1CCOCC1	53.2 µg/mL (≈ 150 µM)
O=C(Nc1ccc(F)cc1)Nc1ccccc1N1CCCCC1	0.3 µg/mL (≈ 0.957 µM)
O=CNCc1nc2ccccc2n1CCc1ccccc1	> 41.9 µg/mL
O=Cc1cccnc1SCc1ccccc1	15.5 µg/mL (≈ 67.6 µM)
O=C(NC(=S)Nc1ccccc1)c1cccs1	1.4 µg/mL (≈ 5.34 µM)
COc1cccc(CN(C)C(=O)C23CC4CC(CC(C4)C2)C3)c1	19.4 µg/mL (≈ 61.9 µM)
CNc1ccc(Cl)cc1C(N)=O	> 27.7 µg/mL
S=C(CN1CCCC1=S)N1CCOCC1	> 36.7 µg/mL
S=C(NCCc1ccccc1)Nc1ccccc1N1CCOCC1	> 51.2 µg/mL
COc1ccc(/C=C2\SC(=Nc3ccccc3OC)NC2=O)cc1	1.7 µg/mL (≈ 4.99 µM)
COc1ccc(COC(=O)CNC(=O)C2CCCCC2)cc1F	18.4 µg/mL (≈ 56.9 µM)
CNC(=O)CCc1ccc(OC)cc1	> 29 µg/mL
Cc1ccsc1C(=O)NC(C)c1ccccc1 (stereo not drawn)	> 36.8 µg/mL
COc1cc(Cl)c(C)cc1NC(=O)CN(C)C1CCS(=O)(=O)C1 (stereo not drawn)	> 54.1 µg/mL
CN(C(=O)c1ccccc1-c1ccccc1C(=O)O)c1ccccc1	44.5 µg/mL (≈ 134 µM)
CSCCC(NC(=O)c1ccccc1)C(=O)OCC(=O)NCc1ccco1 (stereo not drawn)	> 58.6 µg/mL
CCOc1ccccc1N1C(=O)CC(=O)NC1=O	> 37.2 µg/mL
Cc1ccc(-c2cc(C(=O)Nc3cc(C)ccc3O)no2)cc1	< 0.3 µg/mL
COC(=O)c1cc(-n2cccc2)ccc1N1CCOCC1	35.6 µg/mL (≈ 124 µM)
COC(=O)CCC(=O)N1CCCC(CO)(Cc2ccccc2F)C1 (stereo not drawn)	> 50.6 µg/mL
CNC(=O)CSc1nc2ccccc2c(=O)n1CCc1ccccc1	< 0.3 µg/mL
O=C(CSc1nc(-c2ccccc2)cc(=O)[nH]1)Nc1ccccc1F	< 0.2 µg/mL
O=C(CCCN1C(=O)c2cccc3cccc(c23)C1=O)NCc1ccco1	1.5 µg/mL (≈ 4.14 µM)
N/C(=N\OC(=O)c1ccccc1Cl)c1cccc([N+](=O)[O-])c1	1.7 µg/mL (≈ 5.32 µM)

Compound	solubility kinetic
Cl.ClCCN1CCN(c2ccnc3cc(Cl)ccc23)CC1	> 57.5 µg/mL
Cc1onc(-c2ccccc2)c1C(=O)OCCOc1cccc(Cl)c1	< 0.8 µg/mL
O=C(NCc1ccco1)C(=O)NCC(c1ccco1)N1CCOCC1 (stereo not drawn)	47.2 µg/mL (≈ 136 µM)
CCC(=O)Nc1ccc(-c2ccc(N3CCN(C)CC3)nn2)cc1	> 48.8 µg/mL
CC(C)CC(=O)N1CCN(Cc2cccc(Cl)c2)CC1	24.8 µg/mL (≈ 84.1 µM)
Cc1ccc(CCC(=O)Nc2ccc([N+](=O)[O-])cc2Cl)o1	7.5 µg/mL (≈ 24.3 µM)
O=C(Nc1ccccc1)C1CCOC1=O (stereo not drawn)	26.3 µg/mL (≈ 128 µM)
CCCN1CCN(CCCNC(=S)Nc2ccc(F)cc2)CC1	49 µg/mL (≈ 145 µM)
Cc1ccc(CNC(=O)C(C)C2Sc3ccccc3NC2=O)cc1 (stereo not drawn)	1.6 µg/mL (≈ 4.7 µM)
O=C1c2ccccc2CN1c1ccccc1	12.4 µg/mL (≈ 59.3 µM)
CC(=O)N1CCC(C(=O)NCCOc2cccc(C)c2)CC1	> 45.7 µg/mL
CCc1ccc(N=C2NC(=O)CS2)cc1	32.3 µg/mL (≈ 147 µM)
COCCN1Cc2cc(=O)n3c([nH]c4ccccc43)c2C1=N	5.1 µg/mL (≈ 17.2 µM)
Cc1cccc(NC(=O)C(c2ccccc2Cl)N2CCOCC2)c1 (stereo not drawn)	48.9 µg/mL (≈ 142 µM)
O=C(O)c1cc2cc(Oc3ccccc3)ccc2[nH]1	> 38 µg/mL
O=C(c1ccccc1Cl)N1CCSCC1	31.7 µg/mL (≈ 131 µM)
NC(=O)COc1ccccc1	21 µg/mL (≈ 139 µM)
O=C(NCCOc1ccccc1)C(=O)NCC1CCCO1 (stereo not drawn)	> 43.9 µg/mL
CCCOc1ccc(C(=O)NC2CCSc3ccccc32)cc1 (stereo not drawn)	1.6 µg/mL (≈ 4.89 µM)
O=C(NCc1ccc(F)cc1)c1cc(C(=O)C2CC2)c[nH]1	4.2 µg/mL (≈ 14.7 µM)
CCCC(C)NC(=S)Nc1cc(C)cc(C)c1 (stereo not drawn)	25.2 µg/mL (≈ 101 µM)
Cc1ccccc1C(=O)NC(=S)NCc1ccccc1	< 0.3 µg/mL

Next, values leading:

solubility kinetic	Compound
> 70.7 µg/mL	CC(=O)c1ccc(N2CCN(C(=O)c3cc(S(=O)(=O)N4CCOCC4)ccc3C)CC2)cc1
> 48.6 µg/mL	Cc1nc(C(F)(F)F)ccc1C(=O)NCC(O)c1ccccc1 (stereo not drawn)
0.8 µg/mL (≈ 2.88 µM)	C=CCn1c(NC(=O)c2ccccc2)nc2ccccc21
36.1 µg/mL (≈ 128 µM)	Cn1c(C(=O)c2ccccc2[N+](=O)[O-])nc2ccccc21
41.1 µg/mL (≈ 124 µM)	Cc1[nH]c2ccccc2c1CCNC(=O)c1ccc2nccnc2c1
1.1 µg/mL (≈ 2.96 µM)	CC(=O)c1sc(-c2ccccc2)cc1NS(=O)(=O)c1ccc(C)cc1
> 36.5 µg/mL	Cn1c(C(=O)O)cc2c(=O)n3ccccc3nc21
> 47.8 µg/mL	CS(=O)(=O)N1CCCC(C(=O)Nc2c(F)cccc2F)C1 (stereo not drawn)
> 42.2 µg/mL	Cc1cc(=O)[nH]c(SCC(=O)Nc2nonc2C)n1
1.4 µg/mL (≈ 3.88 µM)	CC(C)(C)c1ncc(S(=O)(=O)c2ccc(C(F)(F)F)cn2)c(N)n1
> 45 µg/mL	Cc1cc(=O)oc2cc(OCC(O)Cn3ccnc3)ccc12 (stereo not drawn)
2.6 µg/mL (≈ 6.85 µM)	O=[N+]([O-])c1cc(C(F)(F)F)ccc1NC1CCN(Cc2ccccc2)CC1
7 µg/mL (≈ 23.2 µM)	Cn1c(SCc2ccccc2)nc2c1c(=O)[nH]c(=O)n2C
> 38.7 µg/mL	COc1cccc(Nc2ccc(C(=O)O)cc2N)c1
> 49.9 µg/mL	COc1ccc(S(=O)(=O)N2CC(=O)Nc3ccccc32)cc1C
> 65.2 µg/mL	CCOC(=O)C1CCCN(C(=O)c2ccccc2NS(=O)(=O)c2ccc(F)cc2)C1 (stereo not drawn)
12.6 µg/mL (≈ 35.4 µM)	CC(NC(=O)CNC(=O)c1cccs1)c1cccc(C(F)(F)F)c1 (stereo not drawn)
8.5 µg/mL (≈ 27.4 µM)	Cc1ccc(NC(=O)C2CCCN(c3ncccn3)C2)c(C)c1 (stereo not drawn)
> 50.5 µg/mL	COc1ccc(NS(=O)(=O)c2ccc3oc(=S)[nH]c3c2)cc1
> 52.3 µg/mL	CCOC(=O)CSc1nnc(CNC(=O)c2cccc(C)c2)n1C
> 54.9 µg/mL	CC1Cc2ccccc2N1NC(=O)c1ccc(Cl)c(S(N)(=O)=O)c1 (stereo not drawn)
> 40.4 µg/mL	COc1ccc(S(=O)(=O)N2CCCCC2C)cc1 (stereo not drawn)
37.8 µg/mL (≈ 138 µM)	CN1CCN(S(=O)(=O)c2ccc(Cl)cc2)CC1
> 36.8 µg/mL	CCn1c(SCC#N)nc2ccccc2c1=O

solubility kinetic	Compound
52.2 µg/mL (≈ 149 µM)	Cc1occc1C(=O)Nc1cccc(S(=O)(=O)N2CCOCC2)c1
> 50.5 µg/mL	Cn1c(=O)n(Cc2ccccc2Cl)c(=O)c2c1[nH]c(=S)n2C
4.5 µg/mL (≈ 8.58 µM)	COc1cc(S(=O)(=O)N2CCOCC2)ccc1NC(=O)COC(=O)c1cc(OC)c(OC)c(OC)c1
0.8 µg/mL (≈ 1.74 µM)	N#Cc1c(N2CCN(c3ccc(F)cc3)CC2)nc(N)c2c(N)nc3c(c12)CC(=O)N3C1CC1
> 40.7 µg/mL	Cn1nc(C(=O)NC2CCCC2)c2ccccc2c1=O
> 44.1 µg/mL	Cc1cc2c(Nc3ccc(O)cc3)ncnc2s1.Cl
> 34.5 µg/mL	CCc1ccccc1NC(=O)c1cc(C)no1
0.4 µg/mL (≈ 1.55 µM)	Cc1ccc(NC(=S)Nc2ccccn2)cc1C
34.6 µg/mL (≈ 105 µM)	CN1C(=O)NC(c2cccc([N+](=O)[O-])c2)C2=C1CC(C)(C)CC2=O (stereo not drawn)
> 52.7 µg/mL	CC(NC(=O)COC(=O)c1cc(=O)c2ccccc2o1)c1ccccc1 (stereo not drawn)
5.4 µg/mL (≈ 20.1 µM)	N#CCc1nc(-c2cc3ccccc3oc2=O)cs1
> 47.6 µg/mL	CC(Sc1ncccn1)C(=O)Nc1ccc2c(c1)OCCO2 (stereo not drawn)
1.1 µg/mL (≈ 3.49 µM)	CCOC(=O)c1[nH]c(C)c(C(=O)OCc2ccc(C)cc2)c1C
> 48.2 µg/mL	CN(C1(C)CCS(=O)(=O)C1)S(=O)(=O)c1ccc(F)cc1 (stereo not drawn)
4.1 µg/mL (≈ 12 µM)	CC(=O)OCCNc1cc(SC(C)C)c2nonc2c1[N+](=O)[O-]
6.3 µg/mL (≈ 18.5 µM)	Cc1cc(C(=O)OCC(=O)NC2CCCCC2C)c2ccccc2n1 (stereo not drawn)
> 36 µg/mL	O=S(=O)(Nc1ccccn1)c1cccs1
32.6 µg/mL (≈ 88.5 µM)	CCOC(=O)C1=C(O)/C(=C\c2cc(C)n(-c3ccccc3F)c2C)N=C1C
< 0.5 µg/mL	Cn1cccc1C(=O)OCc1ccc(F)cc1
> 46.4 µg/mL	O=S(=O)(Nc1ncnc2sccc12)c1cccc(F)c1
< 0.3 µg/mL	Cc1ccc(C#N)c(SCc2cccc(Br)c2)n1
4.8 µg/mL (≈ 11.1 µM)	CCn1cc(C(=O)OCC(=O)Nc2ccccc2OC(F)F)c(=O)c2ccc(C)nc21
25.3 µg/mL (≈ 116 µM)	Cc1ccc(CNc2nc(C)cs2)cc1
28.8 µg/mL (≈ 73.4 µM)	Cc1cc(C)cc(N(CCC#N)C(=O)CSc2nc3ccccc3c(=O)[nH]2)c1
